Data from patent publication US7973145B2, “Sulfonated sugar compounds, pharmaceutical compositions which contain the same, and methods of treating tumors with the same” (priority 2007, dated 2011).

Assays:
[1] = test system: bone marrow cells (immature erythrocytes); assay: Micronucleus test by rat intravenous administration; assay type: in vivo; settings: male SD rats
Description: Five male SD rats were assigned to each of the six groups (1) to (6): The test solutions for (1) to (5) contained a normal saline solution containing 10% CREMOPHOR EL as the solvents, and the above-described doses were administered to the rats twice in total for two consecutive days. To the positive control group, the above-described dose was administered once. About 24 hours after the administration, bone marrow smears were prepared. Two thousands of immature erythrocytes were counted for each individual, and the incidence of immature erythrocytes having a micronucleus was calculated. As the index of marrow proliferation suppression, the proportion of immature erythrocytes contained in 1000 erythrocytes was calculated. […] In addition, no influence was found on the marrow proliferation suppression in the test substance-administered group.

[2] = test system: human vascular endothelial cells and human fibrocytes; assay: Tube formation inhibition test using vascular endothelial cell-fibrocyte cocultivation system (angiogenesis kit KZ-1000); assay type: cell-based; settings: FIG. 10, combined with 2 Gy radiation, calcium(salt)-substituted compound, 10 ng/ml VEGF-A
Description: Using a angiogenesis kit (KZ-1000) manufactured by Kurabo Industries Ltd., which is a cocultivation system for human vascular endothelial cells and human fibrocytes, the effects of αSQAP C10:0, αSQAP C14:0, αSQAP C18:0, αSQAP C22:0, βSQAP C18:0, and βSQAP C18:1 on tube formation were examined. Cultivation for tube formation using the kit was conducted according to the manufacturer's instruction manual.
Using a medium containing a final concentration of 10 ng/ml of VEGF-A and being designed specifically for angiogenesis, the respective SQAP compounds were prepared to have intended concentrations. On Day 1 of the cell cultivation, special media each containing SQAP compounds at the respective concentrations and DMSO (negative control) were added to the cultivation systems. The systems were cultivated for 30 minutes, and irradiated with 2 Gy of cobalt 60. Thereafter, on Days 4, 7, and 10 of the cultivation, the media were replaced with newly prepared special media containing SQAP or DMSO. The media were removed on Day 11 of the cultivation, fixed with 70% ethanol, and the formed tubes were stained with anti-human CD31 antibody. The stained figures were photographed under an optical microscope, and the quantity of tube formation was calculated by the image analysis. The angiogenesis index was calculated according to the manufacturer's instruction manual.

[3] = test system: Human esophageal squamous cell carcinoma cells TE-8; assay: Radiosensitizing effect test, tumor-bearing mouse, human esophageal squamous cell carcinoma; assay type: in vivo, KSN nude mice
Description: (§1) The radiosensitizing effect was examined through tumor-bearing mouse experiment.
Human esophageal squamous cell carcinoma cells TE-8 were transplanted into the right femoral region of KSN nude mice in a ratio of 1×10^6 cells per individual. Subsequently, the mice were bred for about 14 days to form a tumor mass of about 150 mm^3 in each individual. Thereafter, four mice were assigned to each of the following groups (1) to (4):
(§2) The drug was administered from Day 1 to Day 5, 2 mg/kg once a day. The subjects were exposed to radiation emitted from an X-ray generator (HS-225, manufactured by Shimadzu Co., Ltd.) at a dose of 2 Gy on Day 1 and Day 4. The tumor volume was calculated according to the calculation formula: (minor axis)^2×major axis×0.5.
This experiment was conducted in the same manner as Example V-1, except that the drug dose administered from Day 1 to Day 5 was 1 mg/kg once a day, and the radiation dose was 4 Gy, and the tumor volume was measured.
Human esophageal squamous cell carcinoma cells TE-8 were transplanted into the right femoral region of KSN nude mice in a ratio of 1×10^6 cells per individual. After a tumor mass of about 50 mm^3 was formed in each individual, four mice were assigned to each of the four groups (1) to (4):
The drug was administered intraperitoneally from Day 1 to Day 5, 1 mg/kg once a day. The subjects were exposed to radiation emitted from an X-ray generator (HS-225, manufactured by Shimadzu Co., Ltd.) at a dose of 4 Gy on Day 1 and Day 4.

[4] = test system: Human colonic adenocarcinoma cells SW480; assay: Antineoplastic effect test (drug alone), tumor-bearing mouse; assay type: in vivo, KSN nude mice; settings: Example VI, FIG. 9; calcium(salt)-substituted compound alone, intraperitoneally 20 mg/kg once a day Day 1 to Day 14
Description: Human colonic adenocarcinoma cells SW480 were transplanted into the right femoral region of KSN nude mice in a ratio of 2×10^6 cells per individual. After a tumor mass of about 50 mm^3 was formed in each individual, four mice were assigned to each of the two groups (1) and (2):
The drug was administered intraperitoneally from Day 1 to Day 14, 20 mg/kg once a day.

[5] = Solubility measurement in injectable water; assay type: physicochemical; settings: 1 g in 5 ml of injectable water
[6] = test system: Human colonic adenocarcinoma cells SW480; assay: Radiosensitizing effect test, tumor-bearing mouse, human colonic adenocarcinoma; assay type: in vivo, KSN nude mice
Description: as §1
Human colonic adenocarcinoma cells SW480 were transplanted into the right femoral region of KSN nude mice in a ratio of 1×10^6 cells per individual. Subsequently, the mice were bred for about 14 days to form a tumor mass of about 150 mm^3 in each individual.
as §2
Human colonic adenocarcinoma cells SW480 were transplanted into the right femoral region of KSN nude mice in a ratio of 2×10^6 cells per individual. After a tumor mass of about 50 mm^3 was formed in each individual, four mice were assigned to each of the four groups (1) to (4):
The drug was administered from the tail vein from Day 1 to Day 5, 1 mg/kg once a day. The subjects were exposed to radiation emitted from an X-ray generator (HS-225, manufactured by Shimadzu Co., Ltd.) at a dose of 2 Gy on Day 1 and Day 4.

[7] = test system: Salmonella typhimurium and Escherichia coli indicator bacterial strains; assay: Reverse mutation assay (Ames test); settings: 2 μg to 5000 μg per plate, presence or absence of S9 mix, all five strains
[8] = test system: SD rats; assay: Single dose (acute) toxicity test; assay type: in vivo; settings: female and male SD rats, single dose via tail vein
Description: Using αSQAP C18:0, an acute toxicity test was conducted on rats. Five female and five male SD rats of 5 to 6 weeks old were assigned to each of the groups (1) to (7):
The test solution for (1) and (4) to (7) contained a normal saline solution containing 10% CREMOPHOR EL, (2) contained a normal saline solution containing 2.5% CREMOPHOR EL, and (3) contained a normal saline solution containing 5% CREMOPHOR EL as the solvents.

[9] = intravenous, 25 to 200 mg/kg twice for two consecutive days
[10] = final concentrations of 5, 10, and 20 μM
[11] = Examples V-5 and V-6, FIG. 7 and 8, calcium(salt)-substituted compound, intraperitoneally 1 mg/kg once a day Day 1 to Day 5 plus X-ray 4 Gy on Day 1 and Day 4
[12] = final concentrations of 5 and 10 μM

In the case of “3-O-(6-sulfo-α-D-quinovopyranosyl)-1-O-stearoyl-propane-1,3-diol calcium salt [αSQAP C18:0 calcium salt]”, the “incidence of micronuclei (immature erythrocytes having a micronucleus) in comparison with the non-administered group” value ([1]; intravenous, 25, 50, 100, 200 mg/kg twice for two consecutive days, bone marrow about 24 hours after) is reported as “no significant increase”, the “chromosomal aberration in bone marrow cells” value [1, 9] is reported as “inducing no chromosomal aberration” and the “marrow proliferation suppression (proportion of immature erythrocytes in 1000 erythrocytes)” value [1, 9] is reported as “no influence”.
For `CCCCCCCCCC(=O)OCCCO[C@H]1O[C@H](CS(=O)(=O)[O-])[C@@H](O)[C@H](O)[C@H]1O.[Na+]` [αSQAP C10:0, 3-O-(6-sulfo-α-D-quinovopyranosyl)-1-O-decanoyl-propane-1,3-diol sodium salt], the tube formation [2, 10] was “inhibited tube formation in a concentration-dependent manner” and the “increase of the tumor volume, drug plus radiotherapy, in comparison with other groups” value (“increase of the tumor volume … with other groups” for short) [3, 11] was “most suppressed”.
With `CCCCCCCCCCCCCC(=O)OCCCO[C@H]1O[C@H](CS(=O)(=O)[O-])[C@@H](O)[C@H](O)[C@H]1O.[Na+]` [αSQAP C14:0, 3-O-(6-sulfo-α-D-quinovopyranosyl)-1-O-myristoyl-propane-1,3-diol sodium salt] the tube formation [2, 10] was “inhibited tube formation in a concentration-dependent manner”.
In the case of `CCCCCCCCCCCCCCCCCC(=O)OCCCO[C@H]1O[C@H](CS(=O)(=O)[O-])[C@@H](O)[C@H](O)[C@H]1O.[Na+]` [αSQAP C18:0, 3-O-(6-sulfo-α-D-quinovopyranosyl)-1-O-stearoyl-propane-1,3-diol sodium salt], the tube formation [2, 10] is reported as “inhibited tube formation in a concentration-dependent manner”, the “suppression of the increase of the tumor volume compared with radiotherapy alone” value ([3]; Example V-1, FIG. 3, drug alone (un-irradiated), 2 mg/kg once a day Day 1 to Day 5, versus 2 Gy on Day 1 and Day 4 alone) is reported as “at the same level” and the “increment of the tumor volume versus non-administered, un-irradiated group” value ([3]; Example V-1, FIG. 3, drug alone (un-irradiated), 2 mg/kg once a day Day 1 to Day 5, from about Day 10) is reported as “fell below that in the (1) non-administered, un-irradiated group”. The “increase of the tumor volume … with other groups” value ([3]; Example V-2, FIG. 4, 1 mg/kg once a day Day 1 to Day 5 plus X-ray 4 Gy) was “most strongly suppressed”, the “increment in the tumor volume versus non-administered, un-irradiated group” value ([3]; Example V-2, FIG. 4, drug alone (un-irradiated), 1 mg/kg once a day Day 1 to Day 5) was “smaller than that in the (1) non-administered, un-irradiated group” and the “increase of the tumor volume … with other groups” value [3, 11] was “most suppressed”. For the same compound, the “increase of the tumor volume in comparison with the non-administered group” value [4] was “markedly suppressed”, the “solubility evaluation by the criteria of the general rules Japanese Pharmacopeia” value ([5]; 25° C.) was “readily soluble” and the “dissolution in injectable water” value ([5]; strongly shaken at 25° C.) was “immediately dissolved”. For the same compound, the “increase of the tumor volume, drug plus radiotherapy” value ([6]; Example V-3, FIG. 5, 2 mg/kg once a day Day 1 to Day 5 plus X-ray 2 Gy on Day 1 and Day 4) was “markedly suppressed”, the “increase of the tumor volume … with other groups” value ([6]; Example V-4, FIG. 6, calcium(salt)-substituted compound, tail vein 1 mg/kg once a day Day 1 to Day 5 plus X-ray 2 Gy on Day 1 and Day 4) was “most suppressed” and the mutagenicity [7] was “negative”. For the same compound, the “number of revertant colonies” value ([7]; calcium(salt)-substituted compound) was “did not increase”, the “mortality during the test period” value ([8]; 25 to 800 mg/kg, observed for two days) was “No individual died” and the lethal dose ([8]; estimated) was “higher than 800 mg/kg”.
For `CCCCCCCCCCCCCCCCCCCCCC(=O)OCCCO[C@H]1O[C@H](CS(=O)(=O)[O-])[C@@H](O)[C@H](O)[C@H]1O.[Na+]` [αSQAP C22:0, 3-O-(6-sulfo-α-D-quinovopyranosyl)-1-O-behenoyl-propane-1,3-diol sodium salt], the tube formation [2, 10] was “inhibited tube formation in a concentration-dependent manner”.
With `CCCCCCCCCCCCCCCCCC(=O)OCC(O)CO[C@H]1O[C@H](CS(=O)(=O)[O-])[C@@H](O)[C@H](O)[C@H]1O.[Na+]` (stereo partly drawn) [αSQMG C18:0, 3-O-(6-sulfo-α-D-quinovopyranosyl)-1-O-stearoyl-glycerol sodium salt, reference compound] the “increase of the tumor volume … with other groups” value ([3]; Example V-1, FIG. 3, 2 mg/kg once a day Day 1 to Day 5 plus X-ray 2 Gy on Day 1 and Day 4) was “most suppressed”.
In the case of `CCCCCCCCCCCCCCCCCC(=O)OCCCO[C@@H]1O[C@H](CS(=O)(=O)[O-])[C@@H](O)[C@H](O)[C@H]1O.[Na+]` [βSQAP C18:0, 3-O-(6-sulfo-β-D-quinovopyranosyl)-1-O-stearoyl-propane-1,3-diol sodium salt], the tube formation [2, 12] is reported as “inhibited tube formation in a concentration-dependent manner”.
For `CCCCCCCC/C=C\CCCCCCCC(=O)OCCCO[C@@H]1O[C@H](CS(=O)(=O)[O-])[C@@H](O)[C@H](O)[C@H]1O.[Na+]` [βSQAP C18:1, 3-O-(6-sulfo-β-D-quinovopyranosyl)-1-O-oleoyl-propane-1,3-diol sodium salt], the tube formation [2, 12] was “inhibited tube formation in a concentration-dependent manner”.
